Laboratory results: PMC10327353 (Breast Cancer Research : BCR, 2023)
Where two headings read alike, the source gives them in different places.

Key:
[1] = test system: 121 recombinant human kinases; experiment: Kinome selectivity profile, 121-kinase panel; type: biochemical; details: 1 µM DZD1516, Km ATP
Method: In vitro profiling of the 121-recombinant kinase panel was performed at Eurofins UK Ltd (Dundee, UK). In brief, recombinant kinases were incubated within an appropriate buffer containing peptide substrate and radiolabelled γ-^33P-ATP together with the presence or absence of the required compound concentration. The reaction was initiated by adding ATP/Mg^2+ mix. After incubation for 40 minutes at room temperature, the reaction was stopped by adding 3% phosphoric acid solution. A portion of the reaction mix was spotted onto P30 filtermat to trap peptide and washed three times for 5 minutes with phosphoric acid to remove non-specific γ-^33P-ATP. The substrate phosphorylation was then measured by scintillation counting, which determined the level of kinase activity inhibition compared to control reactions. Percentage inhibition data for each kinase was mapped to the kinome tree (www.kinhub.org).

wild-type EGFR = molecular target: T1, wild-type EGFR (Homo sapiens, UniProt P00533); experiment: pEGFR MSD assay in A431 cells; type: cell-based
T1 construct: endogenous in cells; host or cells: A431
Method: (§1) A431 and BT474C1-Luci Mono1 cells were seeded in 96-well plates at 20,000 cells/well in DMEM medium containing 1% FBS. After overnight incubation, all cells were treated with compounds at a series of concentrations for 4 hrs. For A431 cell line, an extra stimulation with recombinant human EGF (100 ng/ml for 10 minutes) is applied to activate wild-type EGFR following compound treatment. pEGFR^Y1068 and total EGFR levels were measured by an electro chemiluminescent method (MULTI-SPOT®96 4-Spot HB Prototype EGFR Triplex […]: pEGFR (Y1068), Total EGFR; MESO SCALE DISCOVERY, Cat# N45ZB-1) with MSD SECTOR® Imager, which outputs the ratio of pEGFR/total EGFR for each well. pHER2^Y1248 and total HER2 levels were measured similarly using pHER2 (Y1248) Assay Whole Cell Lysate Kit (MESO SCALE DISCOVERY, Cat# K151CLD-3). The percentage of inhibition was calculated as: % Inhibition = 100 x [1 - (ratio of the sample well - ratio of Min ctrl well)/ (ratio of Max ctrl well - ratio of Min ctrl well)].

BT474C1 cells = experiment: Cell proliferation assay (CellTiter-Glo), BT474C1; type: cell-based, human; details: Homo sapiens; BT474C1, 72 hrs
Method: BT474C1-Luci Mono1 cells were seeded in 384-well plates at 1500 cells/well in DMEM medium containing 10% FBS and 1 mM Oxaloacetic acid (OAA). A431 cells were seeded in 384-well plates at 1,000 cells/well in DMEM medium containing 10% FBS. After overnight incubation, cells were treated with compounds at various concentrations for 3 days. Then cell viability was measured using a CellTiter-Glo Luminescent Cell Viability Assay from Promega Corp. according to the manufacturer's instructions.

[2] = Caco-2 passive permeability; type: in vitro ADME; details: human, Caco-2, pH 7.4; read-out: Caco-2 Papp (intrinsic passive permeability)
Description: Passive permeability (Papp) characterizes the rate across the cell membrane due to passive diffusion. A high permeability enables the rapid establishment of equilibrium among plasma, CSF, and brain compartments. Except for passive permeability, sufficient unbound drug concentration in the brain is governed by efflux transporters, including P-gp (MDR1, ABCB1) and BCRP, at BBB. Efflux ratio (ER) reflects the liability of a compound to be pumped out of the brain by BBB efflux transporters, which is indicated by the distribution disequilibrium between the plasma and the brain compartments.
Again, DZD1516 and DZ2678 permeability were evaluated in a bi-directional assay in Caco-2 cells at 5 μM. The efflux ratio of DZD1516 and DZ2678, with or without novobiocin (a selective BCRP inhibitor), determined whether DZD1516 or DZ2678 was transported via BCRP in Caco-2 cells. The apical-to-basolateral (A-B) and basolateral-to-apical (B-A) transport of DZD1516/DZ2678 in HBSS (25 mM HEPES, pH 7.4) with 0.1% BSA was measured across Caco-2 cell monolayers in the absence and presence of BCRP inhibitor, novobiocin (30 μM). […] Transport of 5 µM DZD1516/DZ2678 and control compound was determined by quantifying substrate concentration in the incubation medium of the donor compartment at the beginning of the incubation period and both donor and receiver compartments at the end of the incubation period. […]

[3] = Phase 1 study: CSF penetration (Kp,uu,CSF); type: in vivo, human; details: for Kp uu: human, oral
Method: Blood samples for PK analyses of DZD1516 and DZ2678 were collected on C0D1. Samples were obtained at pre-dose and at 0.5, 1, 1.5, 2, 2.5, 3, 4, 6, 8, 10, 24, 48, and 72 h after the dose, while for C1D15, samples were obtained at pre-dose and 0.5, 1, 1.5, 2, 2.5, 3, 4, 6, 8, and 10 h after the dose. CSF samples for PK analyses of DZD1516 and its metabolite DZ2678 were collected from patients with BM (C1D15) and LM (C1D15 and C3D1) at steady state (Additional file 1). Plasma and CSF samples were analyzed by LabCorp Madison laboratory (Madison, WI, USA) and LabCorp Shanghai laboratory (Shanghai, China) using a validated LC/MS/MS bioanalytical method to determine DZD1516 and DZ2678 concentrations. Non-compartmental PK analysis was performed using Phoenix WinNonlin (Certara USA Inc., version 8.3.3.33).

HER2 = HER2 (Homo sapiens, UniProt P04626); experiment: pHER2 MSD assay in BT474C1 cells; type: cell-based; design: endogenous in cells; host or cells: BT474C1-Luci Mono1 (BT474 transfected with luciferase only); details: BT474C1, 4 hrs treatment
Method: as §1

T1 sequence (P00533 25-1210): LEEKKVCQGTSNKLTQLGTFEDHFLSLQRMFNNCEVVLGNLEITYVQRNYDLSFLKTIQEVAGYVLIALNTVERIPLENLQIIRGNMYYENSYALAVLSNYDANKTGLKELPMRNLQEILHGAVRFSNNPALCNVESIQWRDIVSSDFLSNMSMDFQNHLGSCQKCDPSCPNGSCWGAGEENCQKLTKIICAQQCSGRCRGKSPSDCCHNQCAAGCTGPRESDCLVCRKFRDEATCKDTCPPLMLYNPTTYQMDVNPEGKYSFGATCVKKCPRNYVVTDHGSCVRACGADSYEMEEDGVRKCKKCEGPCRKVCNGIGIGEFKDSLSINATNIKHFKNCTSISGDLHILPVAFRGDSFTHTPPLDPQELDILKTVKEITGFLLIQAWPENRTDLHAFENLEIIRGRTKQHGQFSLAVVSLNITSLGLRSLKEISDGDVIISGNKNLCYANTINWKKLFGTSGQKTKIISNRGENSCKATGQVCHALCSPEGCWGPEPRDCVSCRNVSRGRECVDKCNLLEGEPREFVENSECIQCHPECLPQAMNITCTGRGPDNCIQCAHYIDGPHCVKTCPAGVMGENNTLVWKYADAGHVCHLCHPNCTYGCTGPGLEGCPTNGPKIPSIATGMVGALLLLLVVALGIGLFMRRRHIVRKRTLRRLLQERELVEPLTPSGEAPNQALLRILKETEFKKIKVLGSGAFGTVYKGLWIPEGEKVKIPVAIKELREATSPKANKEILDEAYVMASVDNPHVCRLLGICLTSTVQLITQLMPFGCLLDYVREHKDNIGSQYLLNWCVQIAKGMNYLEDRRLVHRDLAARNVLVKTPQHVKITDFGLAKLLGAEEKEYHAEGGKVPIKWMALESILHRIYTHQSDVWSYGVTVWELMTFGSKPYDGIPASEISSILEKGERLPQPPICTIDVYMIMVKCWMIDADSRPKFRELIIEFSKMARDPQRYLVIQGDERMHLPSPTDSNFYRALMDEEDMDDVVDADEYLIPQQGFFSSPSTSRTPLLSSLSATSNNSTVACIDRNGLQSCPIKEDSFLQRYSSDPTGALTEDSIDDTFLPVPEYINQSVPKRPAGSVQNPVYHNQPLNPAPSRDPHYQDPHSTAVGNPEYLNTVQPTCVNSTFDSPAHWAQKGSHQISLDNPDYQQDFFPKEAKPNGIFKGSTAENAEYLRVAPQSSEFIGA
Sequence of HER2 (P04626 23-1255): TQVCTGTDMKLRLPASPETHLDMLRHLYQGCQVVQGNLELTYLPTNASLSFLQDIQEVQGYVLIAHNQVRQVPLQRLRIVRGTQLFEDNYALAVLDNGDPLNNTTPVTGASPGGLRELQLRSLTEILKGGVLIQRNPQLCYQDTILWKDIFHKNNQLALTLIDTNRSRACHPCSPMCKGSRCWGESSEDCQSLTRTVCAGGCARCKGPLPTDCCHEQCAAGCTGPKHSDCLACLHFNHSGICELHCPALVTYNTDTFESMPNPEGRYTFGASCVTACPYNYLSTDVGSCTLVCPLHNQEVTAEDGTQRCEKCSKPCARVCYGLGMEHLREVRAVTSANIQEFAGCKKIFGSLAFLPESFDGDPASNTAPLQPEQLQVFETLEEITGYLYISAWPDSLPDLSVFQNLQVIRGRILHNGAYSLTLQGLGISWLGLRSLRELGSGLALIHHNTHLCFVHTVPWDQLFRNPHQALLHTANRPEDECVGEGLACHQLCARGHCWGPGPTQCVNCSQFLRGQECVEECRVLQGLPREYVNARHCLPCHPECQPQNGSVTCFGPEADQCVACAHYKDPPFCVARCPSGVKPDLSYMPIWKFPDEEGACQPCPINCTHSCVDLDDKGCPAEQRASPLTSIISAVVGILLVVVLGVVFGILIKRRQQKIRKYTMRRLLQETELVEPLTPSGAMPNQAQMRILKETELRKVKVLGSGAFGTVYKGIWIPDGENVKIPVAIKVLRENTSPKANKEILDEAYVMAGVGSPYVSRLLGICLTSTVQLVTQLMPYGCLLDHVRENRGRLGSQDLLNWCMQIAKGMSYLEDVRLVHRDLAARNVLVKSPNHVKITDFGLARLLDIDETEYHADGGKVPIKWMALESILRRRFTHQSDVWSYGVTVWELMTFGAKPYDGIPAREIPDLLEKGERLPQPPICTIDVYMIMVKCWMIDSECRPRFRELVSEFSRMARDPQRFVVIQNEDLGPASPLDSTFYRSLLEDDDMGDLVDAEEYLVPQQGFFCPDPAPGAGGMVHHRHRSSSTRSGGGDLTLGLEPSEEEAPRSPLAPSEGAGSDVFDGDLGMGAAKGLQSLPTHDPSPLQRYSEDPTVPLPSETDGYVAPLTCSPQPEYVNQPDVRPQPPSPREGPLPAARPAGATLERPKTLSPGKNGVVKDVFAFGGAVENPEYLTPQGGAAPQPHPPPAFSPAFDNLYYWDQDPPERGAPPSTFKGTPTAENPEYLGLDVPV

SMILES: COc1cc(O[C@H]2CCN(C)CC2(F)F)c2c(Nc3ccc(Oc4ccn5ncnc5c4)c(C)c3)ncnc2c1 [DZD1516]
- number of kinases inhibited > 50% [1]: 12
- IC50 (wild-type EGFR; A431, 4 hrs treatment, EGF stimulation): 1460 nM
- selectivity against wild-type EGFR (wild-type EGFR; pEGFR A431 vs pHER2 BT474C1): greater than 300 fold
- GI50 (BT474C1 cells): 20 nM
- Papp at 120 min, 5 μM [2]: 90 ×10⁻⁶ cm/s
- CSF conc ([3]; 50 mg, subject 1): 4.89 nmol/L
- Free plasma conc ([3]; 50 mg, subject 1): 5.35 nM
- CSF conc ([3]; 50 mg, subject 2): 10.2 nmol/L
- Free plasma conc ([3]; 50 mg, subject 2): 6.28 nM
- CSF conc ([3]; 100 mg, subject 3): 39.3 nmol/L
- Free plasma conc ([3]; 100 mg, subject 3): 13.4 nM
- CSF conc ([3]; 100 mg, subject 4): 15.5 nmol/L
- Free plasma conc ([3]; 100 mg, subject 4): 4.95 nM
- CSF conc ([3]; 100 mg, subject 5): 12.7 nmol/L
- Free plasma conc ([3]; 100 mg, subject 5): 4.84 nM
- CSF conc ([3]; 200 mg, subject 6): 18.3 nmol/L
- Free plasma conc ([3]; 200 mg, subject 6): 13.9 nM
- CSF conc ([3]; 250 mg, subject 7): 27.9 nmol/L
- Free plasma conc ([3]; 250 mg, subject 7): 24.0 nM
- CSF conc ([3]; 250 mg, subject 8): 54.2 nmol/L
- Free plasma conc ([3]; 250 mg, subject 8): 17.4 nM
- Kp uu ([3]; CSF (relative to unbound plasma), patients with CNS metastases, read-out: mean Kp,uu,CSF): 2.1
- Kp uu ([3]; CSF / free plasma, 100 mg, subject 4, read-out: Kp,uu,CSF): 3.13
- Kp uu ([3]; CSF / free plasma, 100 mg, subject 5, read-out: Kp,uu,CSF): 2.63
- Kp uu ([3]; CSF / free plasma, 200 mg, subject 6, read-out: Kp,uu,CSF): 1.31
- Kp uu ([3]; CSF / free plasma, 250 mg, subject 7, read-out: Kp,uu,CSF): 1.16
- Kp uu ([3]; CSF to free plasma, 50 mg, subject 1, read-out: Kp,uu,CSF): 0.915
- Kp uu ([3]; CSF to free plasma, 50 mg, subject 2, read-out: Kp,uu,CSF): 1.62
- Kp uu ([3]; CSF to free plasma, 100 mg, subject 3, read-out: Kp,uu,CSF): 2.94
- Kp uu ([3]; CSF to free plasma, 250 mg, subject 8, read-out: Kp,uu,CSF): 3.13
- IC50 (HER2): 4.4 nM
